Where two headings read alike, the source gives them in different places.
Molecular target: T1, partially purified rat brain farnesyl protein transferase (FPT) (Rattus norvegicus, UniProt Q02293+Q04631)
T1 construct: partially purified rat brain farnesyl protein transferase (FPT); from tissue; host or cells: rat brain (partially purified enzyme)
Assay: FPT IC50 (inhibition of farnesyl protein transferase, in vitro enzyme assay); Ras-CVLS farnesylation
Assay type: biochemical
Procedure: In vitro enzyme assays: FPT IC50 (inhibition of farnesyl protein transferase, in vitro enzyme assay) are determined by the methods disclosed in […] or WO 95/10516.

[1] = in vitro enzyme assay, Ras-CVLS farnesylation, partially purified rat brain FPT, read-out: FPT IC50

| Structure (SMILES) | IC50 [nM] | IC50 [1] [nM] |
| --- | --- | --- |
| CCC1Cc2cc(Cl)cc(Cl)c2C(N2CCN(C(=O)Cc3cc[n+]([O-])cc3)CC2)c2ncc(Br)cc21 (racemic) [Example 3] | 6 |  |
| O=C(CN1C(=O)c2ccccc2C1=O)N1CCC(C2c3ncc(Br)cc3CCc3cc(Cl)cc(Cl)c32)CC1 (single isomer, unassigned; (+)) [Example 4, (+)-4-(3-bromo-8,10-dichloro-6,11-dihydro-5H-benzo[5,6]cyclohepta[1,2-b]pyridin-11-yl)-1-[2-(1,3-dihydro-1,3-dioxo-2H-isoindol-2-yl)-1-oxoethyl]piperidine] |  | 18.6 |
| O=C(CN1CCSCC1)N1CCC(C2c3ccc(Cl)c(Br)c3CCc3cc(Br)cnc32)CC1 (centres unmarked) [Example 1, 4-[8-Chloro-3,7-dibromo-5,6-dihydro-11H-benzo [5, 6]cyclohepta[1,2-b]pyridin-11-yl]-1-(4-thiomorpholinylacetyl)piperidine] |  | 8.9 |
| O=C(CN1CC[S+]([O-])CC1)N1CCC(C2c3ccc(Cl)c(Br)c3CCc3cc(Br)cnc32)CC1 (centres unmarked) [Example 2, 4-[8-Chloro-3,7-dibromo-6,11-dihydro-5H-benzo[5,6]cyclohepta[1,2-b]pyridin-11-yl]-1-(4-thiomorpholinylacetyl)piperidine S-oxide] |  | 6.8 |
| CCC(=O)N1CCC(CC(=O)N2CCC([C@H]3c4ncc(Br)cc4CCc4cc(Cl)cc(Br)c43)CC2)CC1 [Example 5, (+)-4-(3,10-Dibromo-8-chloro-6,11-dihydro-5H-benzo[5,6]cyclohepta[1,2-b]pyridin-11 (R)-yl)-1-[(1-oxopropyl-4-piperidinyl)acetyl]piperidine] |  | 6.8 |
